Assay results published in patent US20220218699A1, “New Pharmaceutical Formulation” (Hoffmann-La Roche Inc., priority 2019, published 2022).

Key:
[1] = target: anaplastic lymphoma kinase (ALK) (Homo sapiens, UniProt Q9UM73); conditions: cited from earlier work
TrkB = TrkB (Homo sapiens, UniProt Q16620); conditions: cited from earlier work
[2] = Single-dose food effect study in dogs; format: in vivo; conditions: formulation that did not comprise at least one acidulant
From the text: Such food effects can cause difficulty during human testing of drugs as the fed or fasted condition of the patient can cause exposure or bioavailability of drugs to vary widely.

TrkC = TrkC (Homo sapiens, UniProt Q16288); conditions: cited from earlier work
Sequence of TrkC (Q16288 32-839): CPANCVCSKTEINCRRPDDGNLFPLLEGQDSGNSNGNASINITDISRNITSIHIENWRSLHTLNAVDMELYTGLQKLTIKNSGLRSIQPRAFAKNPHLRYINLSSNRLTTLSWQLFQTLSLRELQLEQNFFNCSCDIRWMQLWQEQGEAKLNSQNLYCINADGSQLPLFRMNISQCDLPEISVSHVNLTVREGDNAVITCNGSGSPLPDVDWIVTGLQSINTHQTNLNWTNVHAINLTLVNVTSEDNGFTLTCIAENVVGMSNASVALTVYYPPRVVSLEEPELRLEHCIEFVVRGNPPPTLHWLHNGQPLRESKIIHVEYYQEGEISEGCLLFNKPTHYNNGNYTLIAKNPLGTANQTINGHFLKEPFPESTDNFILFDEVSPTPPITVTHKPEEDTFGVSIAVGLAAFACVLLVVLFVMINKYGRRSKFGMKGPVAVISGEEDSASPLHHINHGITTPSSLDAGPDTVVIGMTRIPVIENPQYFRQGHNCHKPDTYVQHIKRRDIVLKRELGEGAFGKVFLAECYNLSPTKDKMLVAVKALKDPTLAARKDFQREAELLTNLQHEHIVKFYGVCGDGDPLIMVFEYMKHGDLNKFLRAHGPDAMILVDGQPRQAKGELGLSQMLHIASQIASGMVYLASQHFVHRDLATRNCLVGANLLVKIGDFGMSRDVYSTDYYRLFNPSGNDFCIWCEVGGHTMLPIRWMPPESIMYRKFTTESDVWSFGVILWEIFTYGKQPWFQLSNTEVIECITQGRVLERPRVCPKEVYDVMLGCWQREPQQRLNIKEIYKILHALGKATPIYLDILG

Sequence of anaplastic lymphoma kinase (ALK) (Q9UM73 19-1620): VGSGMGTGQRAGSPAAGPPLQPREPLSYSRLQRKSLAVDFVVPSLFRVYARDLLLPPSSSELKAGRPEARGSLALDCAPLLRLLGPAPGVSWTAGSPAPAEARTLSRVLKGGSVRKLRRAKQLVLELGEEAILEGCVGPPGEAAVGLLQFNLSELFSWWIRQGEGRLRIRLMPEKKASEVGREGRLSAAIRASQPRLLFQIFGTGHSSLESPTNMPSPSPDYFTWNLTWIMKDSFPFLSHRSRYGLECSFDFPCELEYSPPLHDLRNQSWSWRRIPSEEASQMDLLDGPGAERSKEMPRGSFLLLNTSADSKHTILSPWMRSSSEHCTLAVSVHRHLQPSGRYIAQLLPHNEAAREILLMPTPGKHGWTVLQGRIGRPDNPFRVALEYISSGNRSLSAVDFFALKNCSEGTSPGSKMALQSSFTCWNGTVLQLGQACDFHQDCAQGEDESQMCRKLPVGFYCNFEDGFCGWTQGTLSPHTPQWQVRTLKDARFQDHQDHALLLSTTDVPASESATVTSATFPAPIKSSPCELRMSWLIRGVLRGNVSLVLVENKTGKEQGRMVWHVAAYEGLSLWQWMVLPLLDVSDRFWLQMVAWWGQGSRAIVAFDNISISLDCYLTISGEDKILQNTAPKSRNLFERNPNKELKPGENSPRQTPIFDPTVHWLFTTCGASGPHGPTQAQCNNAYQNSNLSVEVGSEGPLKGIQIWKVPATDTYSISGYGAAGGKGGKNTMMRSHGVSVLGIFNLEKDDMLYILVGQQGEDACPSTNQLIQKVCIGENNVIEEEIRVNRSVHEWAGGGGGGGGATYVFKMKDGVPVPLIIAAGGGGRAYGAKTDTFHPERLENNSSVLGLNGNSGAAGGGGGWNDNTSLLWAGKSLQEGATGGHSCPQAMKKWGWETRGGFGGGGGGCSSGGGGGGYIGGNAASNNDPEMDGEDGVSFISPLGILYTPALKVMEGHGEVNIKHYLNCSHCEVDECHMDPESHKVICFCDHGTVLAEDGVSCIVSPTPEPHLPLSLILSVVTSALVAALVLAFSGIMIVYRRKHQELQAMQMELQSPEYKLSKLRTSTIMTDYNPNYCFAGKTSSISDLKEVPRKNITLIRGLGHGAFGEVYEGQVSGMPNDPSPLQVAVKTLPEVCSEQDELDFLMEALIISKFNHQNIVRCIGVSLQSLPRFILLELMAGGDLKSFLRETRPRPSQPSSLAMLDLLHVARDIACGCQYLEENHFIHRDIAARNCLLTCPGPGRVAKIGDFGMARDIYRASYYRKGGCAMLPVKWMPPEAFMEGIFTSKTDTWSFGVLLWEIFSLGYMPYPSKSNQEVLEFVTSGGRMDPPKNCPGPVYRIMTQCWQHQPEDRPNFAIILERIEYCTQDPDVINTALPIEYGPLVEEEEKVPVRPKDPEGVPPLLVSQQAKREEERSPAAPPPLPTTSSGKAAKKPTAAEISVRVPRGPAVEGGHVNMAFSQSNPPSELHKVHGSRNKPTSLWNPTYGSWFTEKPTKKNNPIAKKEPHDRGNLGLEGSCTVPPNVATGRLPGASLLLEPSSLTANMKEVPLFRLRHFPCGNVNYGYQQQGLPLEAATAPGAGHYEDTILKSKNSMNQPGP
Sequence of TrkB (Q16620 32-822): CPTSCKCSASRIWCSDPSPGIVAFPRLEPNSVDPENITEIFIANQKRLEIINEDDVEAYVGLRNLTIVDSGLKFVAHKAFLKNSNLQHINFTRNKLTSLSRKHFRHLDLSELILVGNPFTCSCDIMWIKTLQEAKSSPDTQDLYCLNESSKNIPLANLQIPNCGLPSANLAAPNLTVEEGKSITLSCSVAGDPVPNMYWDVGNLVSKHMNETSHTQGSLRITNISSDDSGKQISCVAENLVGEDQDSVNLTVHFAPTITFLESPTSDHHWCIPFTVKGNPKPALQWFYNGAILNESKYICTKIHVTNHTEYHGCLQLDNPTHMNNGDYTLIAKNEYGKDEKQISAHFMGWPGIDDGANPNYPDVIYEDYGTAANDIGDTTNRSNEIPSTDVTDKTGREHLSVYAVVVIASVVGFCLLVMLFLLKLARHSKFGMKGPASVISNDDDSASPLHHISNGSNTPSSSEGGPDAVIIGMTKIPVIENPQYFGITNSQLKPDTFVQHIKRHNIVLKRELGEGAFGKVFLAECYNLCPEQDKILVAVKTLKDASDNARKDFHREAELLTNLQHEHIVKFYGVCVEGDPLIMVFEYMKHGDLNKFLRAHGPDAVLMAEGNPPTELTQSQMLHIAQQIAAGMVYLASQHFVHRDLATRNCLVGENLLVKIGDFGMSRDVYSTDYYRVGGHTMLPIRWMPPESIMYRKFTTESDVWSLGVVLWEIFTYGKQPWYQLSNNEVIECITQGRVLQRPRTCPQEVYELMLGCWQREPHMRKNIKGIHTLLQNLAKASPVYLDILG

- exposure levels under fed conditions compared to fasting conditions [2]: approximately 2 fold
SMILES: CN1CCN(c2ccc(C(=O)Nc3n[nH]c4ccc(Cc5cc(F)cc(F)c5)cc34)c(NC3CCOCC3)c2)CC1 [N-[5-(3,5-difluorobenzyl)-1H-indazol-3-yl]-4-(4-methyl-piperazin-1-yl)-2-(tetrahydro-pyran-4-ylamino)-benzamide]
- inhibition of tyrosine kinase ALK [1]: potent inhibitor
- inhibition of tyrosine kinase TrkB (TrkB): potent inhibitor
- inhibition of tyrosine kinase TrkC (TrkC): potent inhibitor
